The target in assay [1] is T1, CDK9 (Homo sapiens, UniProt P50750).
T1 construct: NCIH211 cells with endogenously tagged N-terminal CDK9-HiBit; endogenous in cells; host or cells: NCIH211 cells (endogenous CDK9 locus tagged with HiBit)
The assay can be described thus: CDK9 degradation by HiBit assay, NCIH1048 cells. In kind it is cell-based. To be noted: NCIH1048 cells with endogenously tagged N-terminal CDK9-HiBit, 24 hours incubation; read-out: HiBit-NCIH1048.3 DC50. As for the experimental part:
(§1) Exemplary compounds of the invention were tested for degradation of CDK9. The compounds were tested in 10-dose DC50 duplicate mode with a 3-fold serial dilution starting at 10 μM by HiBit assay (Promega, Inc) as a direct measurement of CDK9 presence, with incubation time of 24 hours using either NCIH211 cells with endogenously tagged N-terminal CDK9-HiBit or NCIH1048 cells with endogenously tagged N-terminal CDK9-HiBit. A control compound (THAL-SNS-032, CAS 2139287-33-3) was tested in 10-dose DC50 mode with 3-fold serial dilution starting at 10 μM. Data was normalized to positive (medium only) and negative (cells with no treatment) controls and curve fits were analyzed with CDK9 as % response vs. log [compound concentration] using a 4-parameter logistic model by GraphPad software. For Table 2: A is <100, B is <1000 C is <10,000, D is >10,000 and ND is Not Determined.
A general note: HiBiT is a short tag that completes a luciferase, so light tracks the accessible tagged protein.

For assay [2], the target named is T1, CDK9. The assay can be described thus: CDK9 degradation by HiBit assay, NCIH211 cells. It counts as cell-based. To be noted: NCIH211 cells with endogenously tagged N-terminal CDK9-HiBit, 24 hours incubation; read-out: HiBit-NCIH211.2 DC50. Here is the method:
as §1

T1 sequence (P50750 whole entry): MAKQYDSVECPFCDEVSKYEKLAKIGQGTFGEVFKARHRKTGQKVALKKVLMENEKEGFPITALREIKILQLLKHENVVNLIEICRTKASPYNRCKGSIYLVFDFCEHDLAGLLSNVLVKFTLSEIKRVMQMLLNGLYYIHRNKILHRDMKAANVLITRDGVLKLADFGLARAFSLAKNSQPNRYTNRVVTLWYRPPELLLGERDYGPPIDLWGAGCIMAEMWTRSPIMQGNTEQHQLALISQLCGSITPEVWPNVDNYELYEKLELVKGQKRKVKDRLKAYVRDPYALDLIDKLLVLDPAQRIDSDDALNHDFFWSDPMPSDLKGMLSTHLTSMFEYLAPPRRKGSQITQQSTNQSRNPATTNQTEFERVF
T1 sequence (O60563 whole entry partner): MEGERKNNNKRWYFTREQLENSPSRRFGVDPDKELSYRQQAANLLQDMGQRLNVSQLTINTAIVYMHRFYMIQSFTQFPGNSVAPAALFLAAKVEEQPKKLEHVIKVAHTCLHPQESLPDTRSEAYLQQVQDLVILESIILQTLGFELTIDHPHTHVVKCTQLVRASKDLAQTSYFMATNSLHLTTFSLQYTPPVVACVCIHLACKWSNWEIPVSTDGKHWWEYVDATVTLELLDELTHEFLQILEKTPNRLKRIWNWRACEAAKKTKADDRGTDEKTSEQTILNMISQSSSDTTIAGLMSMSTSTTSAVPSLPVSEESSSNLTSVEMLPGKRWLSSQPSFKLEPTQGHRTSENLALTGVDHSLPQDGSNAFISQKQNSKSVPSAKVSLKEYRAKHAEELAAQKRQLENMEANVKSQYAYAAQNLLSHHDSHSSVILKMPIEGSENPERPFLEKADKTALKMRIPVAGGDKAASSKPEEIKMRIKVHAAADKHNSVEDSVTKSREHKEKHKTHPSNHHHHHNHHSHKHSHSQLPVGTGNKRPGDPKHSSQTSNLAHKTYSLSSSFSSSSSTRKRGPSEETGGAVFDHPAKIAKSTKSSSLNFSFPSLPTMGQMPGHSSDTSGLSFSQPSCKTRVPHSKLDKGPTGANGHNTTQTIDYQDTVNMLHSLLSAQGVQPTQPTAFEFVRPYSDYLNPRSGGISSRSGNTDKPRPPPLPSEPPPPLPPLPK

In the case of `C/C=C(\CC)c1cc(N[C@H]2CC[C@H](NCC(=O)N3CCN(CCNc4cccc5c4C(=O)N(C4CCC(=O)NC4=O)C5=O)CC3)C2)n2ncc(Cl)c2n1` (stereo partly drawn) [Compound 58.0, 4-[2-[4-[2-[[(1S,3S)-3-[[3-chloro-5-[(E)-1-ethylprop-1-enyl]pyrazolo[1,5-a]pyrimidin-7-yl]amino]cyclopentyl]amino]acetyl]piperazin-1-yl]ethylamino]-2-(2,6-dioxo-3-piperidyl)isoindoline-1,3-dione], the DC50 on CDK9 [1] and at CDK9 [2] was below 100 nM in each case.

Take `CCC(CC)c1cc(N[C@H]2CC[C@H](NCC(=O)NCCCc3cn(CCOCCOCCOCCOCCOc4cc(-c5scnc5C)ccc4CNC(=O)[C@@H]4C[C@@H](O)CN4C(=O)[C@H](C(C)C)N4Cc5ccccc5C4=O)nn3)C2)n2ncc(Cl)c2n1` [Compound 54.0]: the DC50 at CDK9 [1] and on CDK9 [2] was below 10000 nM throughout.

With `CCC(CC)c1cc(N[C@H]2CC[C@H](NCC(=O)N3CCN(CCNc4cccc5c4C(=O)N(C4CCC(=O)NC4=O)C5=O)CC3)C2)n2nccc2n1` (stereo partly shown) [Compound 47.0], the 50% degradation concentration (DC50) (in general, the midpoint of the concentration-degradation curve) at CDK9 [1] was below 100 nM; on CDK9 [2], below 1000 nM.

On to `CCC(CC)c1cc(N[C@H]2CC[C@H](NCC(=O)NCCCc3cn(CCOCCOCCOCCOc4cc(-c5scnc5C)ccc4CNC(=O)[C@@H]4C[C@@H](O)CN4C(=O)[C@H](C(C)C)N4Cc5ccccc5C4=O)nn3)C2)n2ncc(Cl)c2n1` [Compound 53.0], for which the DC50 on CDK9 [1] and at CDK9 [2] was below 10000 nM throughout.

With `CCC(CC)c1cc(N[C@H]2CC[C@H](NCC(=O)NCCCc3cn(CCOCCOc4cc(-c5scnc5C)ccc4CNC(=O)[C@@H]4C[C@@H](O)CN4C(=O)[C@H](C(C)C)N4Cc5ccccc5C4=O)nn3)C2)n2ncc(Cl)c2n1` [Compound 52.0], the DC50 at CDK9 [1] is below 10000 nM; on CDK9 [2], above 10000 nM.

For `CCC(CC)c1cc(N[C@H]2CC[C@H](NCC(=O)N3CCN(CCCCNc4cccc5c4C(=O)N(C4CCC(=O)NC4=O)C5=O)CC3)C2)n2ncc(Cl)c2n1` (stereo partly shown) [Compound 45.0], the DC50 on CDK9 [1] and on CDK9 [2] was below 100 nM throughout.

On to `CCC(CC)c1cc(N[C@H]2CC[C@H](NCC(=O)N3CCN(CCCCNc4cccc5c4C(=O)N(C4CCC(=O)NC4=O)C5=O)CC3)C2)n2nccc2n1` (stereo partly shown) [Compound 46.0], for which the DC50 on CDK9 [1] is below 100 nM; at CDK9 [2] it was below 1000 nM.

`CCC(CC)c1cc(N[C@H]2CC[C@H](NCC(=O)NCCOCCOCCOCCNc3cccc4c3C(=O)N(C3CCC(=O)NC3=O)C4=O)C2)n2nccc2n1` (stereo partly drawn) [Compound 5.0, N-[2-[2-[2-[2-[[2-(2,6-dioxo-3-piperidyl)-1,3-dioxo-isoindolin-4-yl]amino]ethoxy]ethoxy]ethoxy]ethyl]-2-[[(1S,3S)-3-[[5-(1-ethylpropyl)pyrazolo[1,5-a]pyrimidin-7-yl]amino]cyclopentyl]amino]acetamide]: the 50% degradation concentration (DC50) on CDK9 [1] is below 1000 nM; at CDK9 [2] it was below 10000 nM.

These data come from patent US20250188084A1, “COMPOUNDS AND METHODS FOR MODULATING CDK9 ACTIVITY” (KRONOS BIO, INC., priority 2020, published 2025).
